Publication PMC9897032, “How Many Sirtuin Genes Are Out There? Evolution of Sirtuin Genes in Vertebrates With a Description of a New Family Member” (Molecular Biology and Evolution, 2023)

Target: T1, human SIRT3 (Homo sapiens, UniProt Q9NTG7)
T1 construct: recombinant enzyme supplied with Abcam fluorometric SIRT3 activity kit
T1 sequence (Q9NTG7 102-399): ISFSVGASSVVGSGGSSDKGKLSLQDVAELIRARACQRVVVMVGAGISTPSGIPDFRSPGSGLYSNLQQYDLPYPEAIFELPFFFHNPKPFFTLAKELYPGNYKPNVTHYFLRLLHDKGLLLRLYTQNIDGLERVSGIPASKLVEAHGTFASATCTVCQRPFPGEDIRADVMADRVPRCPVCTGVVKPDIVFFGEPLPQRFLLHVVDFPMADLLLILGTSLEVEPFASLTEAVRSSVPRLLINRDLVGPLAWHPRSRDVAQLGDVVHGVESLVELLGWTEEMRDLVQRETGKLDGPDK
Test: fluorometric deacetylation assay, acetylated substrate peptide (Abcam ab156067)
Assay type: biochemical
Conditions: activator; 37 °C; NAD+ dependent assay

fold increase in activity at 100 μM: 1.6 ± 0.1 fold
SMILES: Oc1ccc(/C=C/c2cc(O)cc(O)c2)cc1 [REV, resveratrol]
